From US4895937A, “5-ioso-2-pyrimidinone nucleoside” (The Research Foundation of State University of New York, priority 1988, dated 1990)
Like-named read-outs stand apart in the source and are kept apart here.

Experiments:
HSV-2 = test: Viral inhibition, HSV-2 (Example 7, method of Example 5); assay type: cell-based, herpes simplex type 2; settings: Human alphaherpesvirus 2
Experimental: (§1) In accordance with the present invention, 1-(2-Deoxy-β-D-ribofuranosyl)-5-(methylmercapto)-2-pyrimidinone is prepared essentially in accordance with the procedure set forth in "Snythesis and Antiviral Activity of 1-(2-Deoxy-β-D-ribofuranosyl)-5-(methylmercapto)-2-pyrimidinone" by Schroeder and Bardos and Cheng, Volume 24, page 109, January 1981. HeLa cells were infected in 1640 RPMI medium with herpes simplex type 1 (HSV-1) and independently with herpes simplex type 2 (HSV-2) virus at a multiplicity of 5 to 10 plaque forming units per cell. The composition of 1640 RPMI medium is reported in "Biological Activity of 5 Ethyl, 5 Propyl, and 5 Vinyl 2'-Deoxyuridine" by Cheng et al published in Antimicrobial Agents and Chemotherapy, Volume 10, beginning at page 119 (1976). 1640 RPMI medium is commercially available from Gibco Company, Grand Island, N.Y. After 1 hour, virus absorption, the drugs were added. Resulting cultures were analyzed for virus titer at 24 hours post infection a described in the procedure set forth in "Biological Activity of 5-Ethyl, 5-Propyl and 5-Vinyl 2'-uridine" by Cheng et al. The results are set forth in Table 2. The numbers set forth in Table 2 show the number of plaque forming units in the control which contained no methylmercapto compound and the number of units at concentrations of 100, 200 and 400 micromoles of the methylmercapto compound. The results clearly indicate substantial decrease in the number of plaque forming units in the presence of 1-(2-Deoxy-β-D-ribofuranosyl)-5-(methylmercapto)-2-pyrimidinone.
(§2) The above described methyl compound was tested for viral inhibition substantially in accordance with the method of Example 5 except that the concentrations were 50 and 100 micromolar.

HSV-1 = test: Viral inhibition, HSV-1 (Example 7, method of Example 5); assay type: cell-based, herpes simplex type 1; settings: Human alphaherpesvirus 1
Experimental: as §1, §2

murine leukemia L 1210 = settings: cited from earlier work
virus = settings: literature; cited from earlier work
[1] = test system: ACG (S1), acyclovir resistant strain of HSV1; test: Antiherpes activity, acyclovir resistant strain of HSV1 (S1) (Example 10); assay type: cell-based, HSV-1; settings: Human alphaherpesvirus 1, read-out: plaque-forming units as % of control
Experimental: (§3) IPdR and 5-bromo-2-pyrimidinone-2-deoxyribonucleoside (BrPdR) were tested for antiherpes activity according to procedures described by Cheng, Y.-C., et al. Antimicrob. Agents Chemother (1976) 10, 119.

[2] = test system: BVdU resistant strain of HSV-1; test: Antiherpes activity, BVdU resistant strain (Example 10); assay type: cell-based; settings: Human alphaherpesvirus 1, read-out: plaque-forming units as % of control
Experimental: as §3

[3] = test system: ACG (Tr7), acyclovir resistant strain of HSV1; test: Antiherpes activity, acyclovir resistant strain of HSV1 (Tr7) (Example 10); assay type: cell-based, HSV-1; settings: Human alphaherpesvirus 1, read-out: plaque-forming units as % of control
Experimental: as §3

HSV-1 (KOS) = test: Antiherpes activity, HSV-1 (KOS) (Example 10); assay type: cell-based
Experimental: as §3

PFA-resistant strains = test: Antiherpes activity, PFA-resistant strain (Example 10); assay type: cell-based; settings: 5 μM; read-out: plaque-forming units as % of control
Experimental: as §3

HSV-1 (CLl0l) = test: Antiherpes activity, HSV-1 (CLl0l) (Example 10); assay type: cell-based
Experimental: as §3

HSV-2 (333) = test: Antiherpes activity, HSV-2 (333) (Example 10); assay type: cell-based
Experimental: as §3

[4] = test system: HSV-1 and HSV-2 strains (herpes virus group); test: Antiherpes activity, overall statement; assay type: cell-based
Experimental: as §3

HSV-2 (CEU-G) = test: Antiherpes activity, HSV-2 (CEU-G) (Example 10); assay type: cell-based; settings: Human alphaherpesvirus 2, read-out: plaque-forming units as % of control
Experimental: as §3

HSV-2 (Strain 333) [5] = test: Antiviral activity in HSV-2 infected mice by various routes (Example 9); assay type: in vivo, Swiss-Webster female mice; settings: for % ILS: excluding 45 day survivors
Experimental: The drugs were administered once a day for five days or twice daily (12 hour intervals) for 2.5 days beginning 24 hours postinfection. Mean body weight determinations of drug treated and control animals were made during the treatment period as an indicator of sublethal toxicity. Deaths were recorded through day 45.

host cell = settings: literature, Oftebro et al., Oyen et al.; cited from earlier work
HSV-2 (strain 333) [6] = test: Antiviral activity, HSV-2 plaque reduction (Example 8 Part A); assay type: cell-based
Experimental: The effects of 1-(2-Deoxy-β-D-ribofuranosyl)-5-iodo-2-pyrimidinone (IPdR) of Example 3 were compared with 1-(2-Deoxy-β-D-ribofuranosyl)-5-fluoro-2-pyrimidinone (FPdR) on HSV-2 (strain 333) in […]. Twenty four well plates (sterile) were plated with 10^6 Vero cells/well the day before infecting. 250 PFU of HSV-2 were used in each well. The test compounds, IPdR and FPdR, were added at zero times of post infection and the cultures incubated at 37° C. for 48 hours. At the end of the incubation period the media was removed from Vero cells. Plates were strained with 0.8% crystal violet in 50% ethanol for 15 minutes. The plaque was counted.

[7] = test system: human nasopharyngeal carcinoma KB cells; test: Cytotoxicity / cell proliferation in KB cells (Example 8 Part B); assay type: cell-based
Experimental: (§4) To compare the toxicity of FPdR and IPdR human nasopharyngeal carcinoma KB cells obtained from the American Type Culture Collection were maintained as a monolayer in RPMI 1640 supplemented with 5% fetal bovine serum, 10 mM HEPES buffer (pH 7.4) and karamycin (100 μg/ml). Cells were maintained at 37° C. in a humidified atmosphere of 5% CO2 in air. Cell numbers were determined with an electronic particle counter (Particle Data, Inc., Elmhurst, Ill.).
(§5) For determination of drug effect on cell proliferation, cells were harvested from rapidly proliferting cultures by treatment with pancreation. Cell number was determined and plated in 24 well (6 mm well diameter) plates at a concentratin of 5×10^3 cells/ml. Drug exposures were initiated by a complete change of medium after overnight incubation. Following a 72 hour drug exposure […]. of thiazolyl blue was added and incubated for a further 4 hour period. The media from the plates was aspirated completely and […] DMSO was added to each well. The plates were placed on a shaker for 5 minutes and the blue solution transferred to 96 well plates and read at 540 nm with a scanning multiwell spectrophotometer (Biotek Instruments, Inc. Burlington, Vt.).

[8] = as above; assay type: cell-based, human; settings: human, kb cells, 72 hour exposure
Experimental: as §4, §5

[9] = test system: herpatic lesions of the skin; settings: topical; cited from earlier work
bone marrow = settings: cited from earlier work
nucleotidases = settings: systemic administration; cited from earlier work
[10] = intravenous injection; cited from earlier work
[11] = 50 micromolar, vs untreated control
[12] = Human alphaherpesvirus 1, 5 μM, read-out: plaque-forming units as % of control
[13] = Human alphaherpesvirus 1, read-out: plaque-forming units as % of control
[14] = 40 mg/kg oral, 2 × 21/2, 72 hours after implant
[15] = 40 mg/kg oral, 2 × 21/2, innoculation dose 1 × 10^6 PFU

Structure (SMILES): Cc1cnc(=O)n(C2C[C@H](O)[C@@H](CO)O2)c1 (stereo in doubt) [methyl compound, 1-(2-Deoxy-α-D-ribofuranosyl)-5-(methyl)-2-pyrimidinone]
- inhibition at 50 µM (HSV-2; [11]): 87.9%
- inhibition at 100 µM (HSV-2; 100 micromolar): 98.3%
- inhibition at 50 µM (HSV-1; [11]): 95.5%
- inhibition at 100 µM (HSV-1; 100 micromolar): 99%

Structure (SMILES): O=c1ncc(Br)cn1[C@@H]1O[C@H](CO)[C@@H](O)[C@H]1O [5-bromo]
- anti-tumor activity (murine leukemia L 1210): lack of anti-tumor activity

Structure (SMILES): O=c1ncc(Cl)cn1[C@@H]1O[C@H](CO)[C@@H](O)[C@H]1O [5-chloro]
- anti-tumor activity (murine leukemia L 1210): lack of anti-tumor activity

Structure (SMILES): O=c1ncc(F)cn1[C@@H]1O[C@H](CO)[C@@H](O)[C@H]1O [5-fluoro riboside, 5-fluoro-pyrimidin-2-one riboside]
- anti-viral activity (virus): possessing anti-viral activity
- anti-tumor activity (murine leukemia L 1210): only the 5-fluoro was active

Structure (SMILES): Nc1nc2c(ncn2COCCO)c(=O)[nH]1 [ACG, acyclovir, reference compound]
- activity at 5 µM [1]: 100%
- activity at 5 µM [2]: 0.7%
- activity at 5 µM [3]: 85%
- activity at 5 µM (HSV-1 (KOS); [12]): 6.5%
- activity at 5 µM (PFA-resistant strains): 100%
- activity at 5 µM (HSV-1 (CLl0l); [12]): 4%

Structure (SMILES): O=c1[nH]c(=O)n([C@H]2C[C@H](O)[C@@H](CO)O2)cc1/C=C/Br [BVdU, (bromovinyl) deoxyuridine, reference compound]
- activity at 30 µM [1]: 3.7%
- activity at 30 µM [2]: 52%
- activity at 30 µM [3]: 0.8%
- activity at 30 µM (HSV-2 (333); Human alphaherpesvirus 2, read-out: plaque-forming units as % of control): 1.7%
- activity at 30 µM (HSV-1 (KOS); [13]): 0.1%
- activity at 30 µM (HSV-1 (CLl0l); [13]): 0.4%

Structure (SMILES): O=c1ncc(Br)cn1[C@H]1C[C@H](O)[C@@H](CO)O1 [BrPdR, 1-(2-Deoxy-β-D-ribofuranosyl)-5-(bromo)-2-pyrimidinone]
- antiherpes / anti-viral activity (words) [4]: significant antiherpes activities
- activity at 100 µM (HSV-2 (333); Human alphaherpesvirus 2, 100 μM, read-out: plaque-forming units as % of control): 4.5%
- activity at 100 µM (HSV-1 (KOS); Human alphaherpesvirus 1, 100 μM, read-out: plaque-forming units as % of control): 0.6%
- activity at 100 µM (HSV-2 (CEU-G)): 7.1%

Structure (SMILES): Nc1nc2c(ncn2COC(CO)CO)c(=O)[nH]1 [DHPG, Dihydroxy propoxymethyl guanine, reference compound]
- Survivors/Total (HSV-2 (Strain 333) [5]; 40 mg/kg oral, 2 × 21/2): 20/20
- percent survival (HSV-2 (Strain 333) [5]; 40 mg/kg oral, 2 × 21/2): 100%
- Survivors/Total (HSV-2 (Strain 333) [5]; [14]): 5/5
- percent survival (HSV-2 (Strain 333) [5]; [14]): 100%
- Mean Survival Time (HSV-2 (Strain 333) [5]; 40 mg/kg oral, 2 × 21/2, control 9.8 ± 1.3): > 45 days
- Mean Survival Time (HSV-2 (Strain 333) [5]; 40 mg/kg oral, 2 × 21/2, control 10.6 ± 2.1): > 45 days
- Survivors/Total (HSV-2 (Strain 333) [5]; [15]): 2/5
- percent survival (HSV-2 (Strain 333) [5]; [15]): 40%
- Mean Survival Time (days), of the mice that died (HSV-2 (Strain 333) [5]; 40 mg/kg oral, 2 × 21/2, innoculation dose 1 × 10^6 PFU, control 10.0 ± 1.2): 20.0 ± 7.0 days
- % ILS (HSV-2 (Strain 333) [5]; [15]): 200%

Structure (SMILES): C#Cc1cnc(=O)n([C@H]2C[C@H](O)[C@@H](CO)O2)c1 [EPdR]
- Survivors/Total (HSV-2 (Strain 333) [5]; 100 mg/kg IP, 1 × 5): 1/5
- percent survival (HSV-2 (Strain 333) [5]; 100 mg/kg IP, 1 × 5): 20%
- Mean Survival Time (days), of the mice that died (HSV-2 (Strain 333) [5]; 100 mg/kg IP, 1 × 5, control 9.6 ± 1.1): 9.0 ± 0.8 days
- % ILS (HSV-2 (Strain 333) [5]; 100 mg/kg IP, 1 × 5): 94%

Structure (SMILES): O=c1ncc(F)cn1[C@H]1C[C@H](O)[C@@H](CO)O1 [FPdR, 1-(2-Deoxy-β-D-ribofuranosyl)-5-fluoro-2-pyrimidinone]
- toxicity to the host cell versus virus (host cell): more toxic to the host cell than to the virus
- antiviral activity, comparison of IPdR and FPdR (HSV-2 (strain 333) [6]): comparable in antiviral activity
- inhibition at 100 µM (HSV-2 (strain 333) [6]; Human alphaherpesvirus 2, Vero, 100 μM, 48 hours): 50.5%
- toxicity against the host cells [7]: significantly greater than IPdR
- toxicity against the host cells ([7]; listed as 5-fluoro deoxyriboside): more toxic to the host than to the virus
- activity at 72 h, 1 µM ([8]; 1.0 μm, read-out: % Growth): 102%
- activity at 72 h, 10 µM ([8]; 10 μm, read-out: % Growth): 84%
- activity at 72 h, 25 µM ([8]; 25 μm, read-out: % Growth): 49%
- activity at 72 h, 50 µM ([8]; 50 μm, read-out: % Growth): 21%
- IC50 at 72 h ([8]; cytotoxicity, read-out: ID50): 25 µM
- anti-viral activity (virus): exhibiting anti-viral activity

Structure (SMILES): O=c1[nH]c(=O)n([C@H]2C[C@H](O)[C@@H](CO)O2)cc1I [idoxuridine, 5-iodo-2'-deoxyuridine]
- response of herpatic lesions of the skin [9]: do not respond
- toxicities upon systemic administration (bone marrow): bone marrow depression
- inactivation by nucleotidases (nucleotidases): rapidly inactivated by nucleotidases
- disappearance of most of the active form from the blood [10]: about thirty
